From patent US6750199B2, “Antimicrobial sulfonamide derivatives of lipopeptide antibiotics” (Micrologix Biotech Inc., priority 2000, dated 2004)
Converted amounts (≈) assume the structure as drawn. Read-outs that look alike come from different tables or passages of the source. Starred links: 1 amine or outer side, 2 acyl side, 3 side chain; linkers in the order of their positions; H or OH if unused. Positions of bridges follow the written chain, without caps; N, C: chain ends. Non-standard residues stand in square brackets, D forms with d. Residues, ends and D or L forms follow the SMILES beside them. ξ: configuration not given here. *: point of attachment. Hexadecanesulfonyl = CCCCCCCCCCCCCCCCS(=O)(=O)*; ξAbu(βξ-NH2) = CC(N[*:3])C(N[*:1])C(=O)[*:2]; ξAsp(βξ-Me) = CC(C(=O)O)C(N)C(=O)O; ξAbu(3ξ-NH2) = CC(N)C(N)C(=O)O; X1 = CCCCCCCCCCS(=O)(=O)*; Pip = O=C(O)[CH]1CCCCN1; ξD = NC(CC(=O)O)C(=O)O; Dap = NC[CH](N)C(=O)O; ξI = CCC(C)C(N)C(=O)O; ξPip = O=C(O)C1CCCCN1; ξT = CC(O)C(N)C(=O)O; ξDap = NCC(N)C(=O)O; ξP = O=C(O)C1CCCN1

Experiments:
[1] = test system: Staphlococcus aureus strain Smith; format: cell-based
Description: MIC values were determined by microliter serial dilution using Staphlococcus aureus strain Smith as the assay organism, which was grown in Mueller-Hinton broth with and without CaCl2.

deacylase broth = assay: in vitro; format: in vitro ADME, Actinoplanes utahensis NRRL 12052
Description: (§1) The high-producing, natural variant was used in the known fermentation protocol employed (Boeck et al., 1988. J. Antibiot., 41, 1085). A stock culture of Actinoplanes utahensis NRRL 12052 variant, preserved in 20% glycerol at −70° C., was introduced into a 25×150 mm test tube containing 10 mL of a medium comprised of 2.0% sucrose, 2.0% pre-cooked oatmeal, 0.5% distiller's grain, 0.25% yeast, 0.1% K2HPO4, 0.05% KCl, 0.05% MgSO4-7H2O and 0.0002% FeSO4-7H2O in deionized water. After incubation at 30° C. for 72 hrs on a rotary shaker orbiting at 250 rpm the resulting mycelial suspension was transferred into 50 mL of PM3 medium in a 250 mL Erlenmeyer flask. The PM3 medium contained 2.0% sucrose, 1.0% peanut meal, 0.12% K2HPO4, 0.05% KH2PO4 and 0.025% MgSO4-7H2O, in tap water. The flask was incubated at a temperature of 30° C. for a period of between 60 to 90 hrs. The whole broth from this fermentation contained the deacylase enzyme.
(§2) One milligram of the hexadecylsulfonyl-L-tryptophan derivative of the core antibiotic of laspartomycin (see Section 5.4 for preparation) was added to 2 mL of deacylase broth (prepared as described in Section 5.1) and a zero time sample (0.5 mL) was removed and stored by freezing. The reaction mixture was placed on a shaker at 200 rpm and 84° C. for 16 hours. The zero and 16 hour samples were then studied by HPLC and by agar well zone diffusion assay using Staphylococuss aureus as a test organism. The same conditions were used to compare laspartomycin to enzyme deactivation. […] Under the same conditions Antibiotic A21978C and Aspartocin were completely deactivated within two hours and 16 hours, respectively.

deacylase = assay: in vitro; format: in vitro ADME, Actinoplanes utahensis NRRL 12052; conditions: Actinoplanes utahensis, cells or culture medium
Description: as §1, §2

Staphylococuss aureus = assay: Resistance to deacylase enzyme: agar well zone diffusion bioassay of deacylase broth samples; format: cell-based; conditions: 9 mm well, 100 μl of sample, incubated 16 hrs. at 28° C.; for Bioassay zone dia. 16 hours: after 16 hours in deacylase broth, 200 rpm, 84° C.; for Bioassay zone dia. Zero time: zero time in deacylase broth
Description: as §2

Staphylococcus aureus = assay: MIC against Staphylococcus aureus (comparison with aspartocin); format: cell-based
Description: One drop of piperdine was added to about 5.5 mg of the product from Section 5.2.4 dissolved in 2.0 mL of 2:1 mixture of dimethylsulfoxide:methanol. Monitoring by HPLC indicated the reaction was complete after 60 minutes at room temperature. The reaction was quenched by addition of 6.0 mL cooled 0.2 M ammonium phosphate at pH 7.2. The quenched reaction mixture was applied to a 0.5 g resin cartridge (ENVI-Chrom P) and eluted with a stepwise gradient of pH 7.2 phosphate-buffered aqueous acetonitrile. The product was eluted with 25% acetonitrile. Appropriate fractions were pooled and acetonitrile was removed under vacuum at room temperature. The product was desalted by adsorption onto a 0.5 g resin cartridge which was then rinsed with 10% acetonitrile, followed by 50% acetonitrile. The 50% acetonitrile eluate was evaporated to remove acetonitrile and the resulting aqueous solution freeze dried to provide about 1.5 mg of white solid. FAB-MS: m/z 1379 (M+Na)^+ was consistent with the expected structure.

How did the “MIC w CaCl2 (4 mm)” value [1] turn out when CCCCCCCCCCCCCCCCS(=O)(=O)NC(Cc1c[nH]c2ccccc12)C(=O)NC(CC(=O)O)C(=O)NC1CNC(=O)C2CCCN2C(=O)C(C(C)CC)NC(=O)C(C(C)O)NC(=O)CNC(=O)C(CC(=O)O)NC(=O)CNC(=O)C(CC(=O)O)NC(=O)CNC(=O)C2CCCCN2C1=O (stereo not drawn) [Compound 52] (Hexadecanesulfonyl-WD[Dap][Pip]GDGDGTIP; lactam 3-C; configuration not given here) was run?
Its value is 4000 µg/mL (≈ 2670 µM).

What about the “MIC w/o CaCl2” value [1] of the same compound?
Its value is 8000 to 16000 µg/mL.

Which “MIC w CaCl2 (4 mm)” value [1] does the source give for CCCCCCCCCCCCCCCCS(=O)(=O)NC(Cc1ccccc1)C(=O)NC(CC(=O)O)C(=O)NC1CNC(=O)C2CCCN2C(=O)C(C(C)CC)NC(=O)C(C(C)O)NC(=O)CNC(=O)C(CC(=O)O)NC(=O)CNC(=O)C(CC(=O)O)NC(=O)CNC(=O)C2CCCCN2C1=O (stereo not drawn) [Compound 56] (Hexadecanesulfonyl-FD[Dap][Pip]GDGDGTIP; lactam 3-C; configuration not given here) here?
Its value is 4000 µg/mL (≈ 2740 µM).

And the “MIC w/o CaCl2” value [1]?
The value was 8000 µg/mL (≈ 5480 µM).

How did the “MIC w CaCl2 (4 mm)” value [1] turn out when CCCCCCCCCCS(=O)(=O)NCC(=O)NC(CC(=O)O)C(=O)NC1C(=O)N2CCCCC2C(=O)NC(C(C)C(=O)O)C(=O)NC(CC(=O)O)C(=O)NCC(=O)NC(CC(=O)O)C(=O)NCC(=O)NC(C(C)N)C(=O)NC(C(C)C)C(=O)N2CCCC2C(=O)NC1C (stereo not drawn) [Compound 58] (X1-GD[ξAbu(βξ-NH2)][Pip][ξAsp(βξ-Me)]DGDG[ξAbu(3ξ-NH2)]VP; lactam 3-C; configuration not given here) was run?
Its value is 1000 µg/mL (≈ 737 µM).

And the “MIC w/o CaCl2” value [1]?
Its value is 32000 µg/mL (≈ 23600 µM).

CCCCCCCCCCCCCCCCS(=O)(=O)NC(Cc1ccccc1)C(=O)NC(CC(=O)O)C(=O)NC1C(=O)N2CCCCC2C(=O)NC(C(C)C(=O)O)C(=O)NC(CC(=O)O)C(=O)NCC(=O)NC(CC(=O)O)C(=O)NCC(=O)NC(C(C)N)C(=O)NC(C(C)C)C(=O)N2CCCC2C(=O)NC1C (stereo not drawn) [Compound 62] (Hexadecanesulfonyl-FD[ξAbu(βξ-NH2)][Pip][ξAsp(βξ-Me)]DGDG[ξAbu(3ξ-NH2)]VP; lactam 3-C; configuration not given here) was tested. Which “MIC w CaCl2 (4 mm)” value [1] did it give?
Its value is 4000 µg/mL (≈ 2610 µM).

And the “MIC w/o CaCl2” value [1]?
The value was 4000 µg/mL (≈ 2610 µM).

How did the “HPLC Peak Area zero time” value (deacylase broth) turn out when CCCCCCCCCCCCCCCCS(=O)(=O)N[C@@H](Cc1c[nH]c2ccccc12)C(=O)N[C@@H](CC(=O)O)C(=O)NC1CNC(=O)C2CCCN2C(=O)C(C(C)CC)NC(=O)C(C(C)O)NC(=O)CNC(=O)C(CC(=O)O)NC(=O)CNC(=O)C(CC(=O)O)NC(=O)CNC(=O)C2CCCCN2C1=O (stereo partly drawn) [Hexadecylsulfonyl-L-Tryptophan Derivative of the Core Antibiotic of Laspartomycin] (Hexadecanesulfonyl-WD[ξDap][ξPip]G[ξD]G[ξD]G[ξT][ξI][ξP]; lactam 3-C) was run?
The value was 100%.

And the “deactivation / degradation by the enzyme preparation (in words)” value (deacylase broth)?
The value was “degraded at a much slower rate”.

What about the remaining at 16 h, 0.5 mg/mL (deacylase) of the same compound?
Its remaining at 16 h, 0.5 mg/mL is 53%.

And the “Bioassay zone dia. 16 hours” value (Staphylococuss aureus)?
Its value is 12.8 mm.

And the “Bioassay zone dia. Zero time” value (Staphylococuss aureus)?
The value was 13.7 mm.

Which “MIC values compared with aspartocin” value (Staphylococcus aureus) does the source give for “Decanesulfonylglycyl Aspartocin [decanesulfonylglycyl derivative]” here?
The value was “essentially the same as those for aspartocin”.

What does the source list for laspartomycin [reference compound]?
MIC w CaCl2 (4 mm) ([1]; S. aureus strain Smith, Mueller-Hinton broth, with CaCl2 (4 mm)): 2000 µg/mL; MIC w/o CaCl2 ([1]; S. aureus strain Smith, Mueller-Hinton broth, without CaCl2): 16000 µg/mL; HPLC Peak Area zero time (deacylase broth): 100%; deactivation / degradation by the enzyme preparation (in words) (deacylase broth): complete deactivation; HPLC Peak Area 16 hours (deacylase broth; Actinoplanes utahensis, cells or culture medium, 16 h, 0.5 mg/mL): 0%; Bioassay zone dia. 16 hours (Staphylococuss aureus): no zone; Bioassay zone dia. Zero time (Staphylococuss aureus): 15.5 mm
